Experiments:
Recombinant human HDAC2 = target: T1, Recombinant human HDAC2 (Homo sapiens, UniProt Q92769); experiment: Human HDAC enzyme inhibitor Fluor-de-Lys assay, HDAC2; type: biochemical; details: recombinant human HDAC2, Fluor-de-Lys assay
T1 construct: Full length human HDAC2-FLAG was expressed in baculovirus infected Sf9 cells; FLAG (C); made in house; host or cells: Sf9 (baculovirus)
Outline: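 Fluor-de-Lys format at room temperature (23° C.): compounds titrated 10-point, 1:3, preincubated with HDAC before substrate addition. Developer with excess HDAC inhibitor ends the reaction, and trypsin-liberated AMC fluorescence is the read-out.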

HDAC6 = target: T2, HDAC6 (Homo sapiens, UniProt Q9UBN7); experiment: Human HDAC enzyme inhibitor Fluor-de-Lys assay, HDAC6; type: biochemical; details: HDAC6, Fluor-de-Lys assay
T2 sequence (Q9UBN7 1-1215): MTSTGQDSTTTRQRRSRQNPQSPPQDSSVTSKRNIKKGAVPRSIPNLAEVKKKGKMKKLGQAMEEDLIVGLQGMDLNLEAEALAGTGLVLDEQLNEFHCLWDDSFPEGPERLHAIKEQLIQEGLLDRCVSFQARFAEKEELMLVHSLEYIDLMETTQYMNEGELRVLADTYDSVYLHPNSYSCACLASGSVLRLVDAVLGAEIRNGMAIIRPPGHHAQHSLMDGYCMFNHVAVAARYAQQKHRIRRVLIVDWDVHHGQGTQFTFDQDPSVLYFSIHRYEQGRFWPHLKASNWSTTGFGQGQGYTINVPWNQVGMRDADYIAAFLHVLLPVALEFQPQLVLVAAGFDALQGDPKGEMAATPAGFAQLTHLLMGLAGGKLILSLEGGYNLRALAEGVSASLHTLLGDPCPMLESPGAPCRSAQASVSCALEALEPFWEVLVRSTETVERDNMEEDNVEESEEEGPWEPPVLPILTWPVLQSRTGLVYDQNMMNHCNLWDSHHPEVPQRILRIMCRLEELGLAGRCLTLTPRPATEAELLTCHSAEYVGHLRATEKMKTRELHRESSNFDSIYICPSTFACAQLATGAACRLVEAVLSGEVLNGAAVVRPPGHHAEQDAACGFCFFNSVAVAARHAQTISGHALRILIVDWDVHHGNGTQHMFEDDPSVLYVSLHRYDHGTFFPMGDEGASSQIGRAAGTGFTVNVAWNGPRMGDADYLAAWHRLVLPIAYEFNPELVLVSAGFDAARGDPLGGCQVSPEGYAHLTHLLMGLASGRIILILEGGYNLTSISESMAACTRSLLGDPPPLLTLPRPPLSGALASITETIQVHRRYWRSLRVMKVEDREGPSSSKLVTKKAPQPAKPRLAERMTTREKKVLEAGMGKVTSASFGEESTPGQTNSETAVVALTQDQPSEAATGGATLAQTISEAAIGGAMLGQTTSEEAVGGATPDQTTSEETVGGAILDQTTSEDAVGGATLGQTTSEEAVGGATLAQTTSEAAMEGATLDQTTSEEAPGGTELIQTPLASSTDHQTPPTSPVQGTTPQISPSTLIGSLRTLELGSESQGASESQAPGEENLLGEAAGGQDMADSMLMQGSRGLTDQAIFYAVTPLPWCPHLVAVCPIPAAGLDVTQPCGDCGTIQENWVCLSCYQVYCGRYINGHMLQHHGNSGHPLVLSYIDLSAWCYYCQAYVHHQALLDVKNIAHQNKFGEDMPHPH

T1 sequence (Q92769 whole entry): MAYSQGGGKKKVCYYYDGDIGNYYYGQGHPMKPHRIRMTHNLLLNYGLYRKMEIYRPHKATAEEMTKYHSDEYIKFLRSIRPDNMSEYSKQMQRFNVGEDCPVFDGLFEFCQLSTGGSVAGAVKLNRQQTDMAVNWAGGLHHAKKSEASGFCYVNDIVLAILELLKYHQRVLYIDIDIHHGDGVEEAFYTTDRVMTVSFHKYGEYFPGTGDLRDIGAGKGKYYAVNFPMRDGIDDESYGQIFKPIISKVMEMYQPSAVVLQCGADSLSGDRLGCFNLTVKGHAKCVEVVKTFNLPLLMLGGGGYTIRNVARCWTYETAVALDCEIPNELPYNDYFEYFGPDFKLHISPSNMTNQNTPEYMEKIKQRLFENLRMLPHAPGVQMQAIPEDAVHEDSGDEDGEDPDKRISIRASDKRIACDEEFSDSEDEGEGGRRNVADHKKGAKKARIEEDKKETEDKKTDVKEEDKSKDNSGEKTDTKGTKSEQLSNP

## CCC(=O)CCCCC[C@H](NC(=O)[C@H]1CC12CCN(C)CC2)c1ncc(-c2cnc3cccnc3c2)[nH]1 [Compound 259]
Recombinant human HDAC2
  IC50: 0.095 µM
HDAC6
  IC50: 3.14 µM

From patent publication US12590099B2, “Inhibitors of histone deacetylase useful for the treatment or prevention of HIV infection” (Merck Sharp & Dohme LLC, priority 2018, dated 2026)
